Publication PMC10281321, “Discovery of an effective anti-inflammatory agent for inhibiting the activation of NF-κB” (Journal of Enzyme Inhibition and Medicinal Chemistry, 2023)

Key:
Format in all cases: cell-based
[1] = test system: LPS-stimulated RAW264.7 cells; assay: NO release inhibition in LPS-stimulated RAW264.7 cells (Griess reagent); conditions: for IC50: Mus musculus, LPS-stimulated RAW264.7 cells, Griess Reagent; for anti-inflammatory activity (in words): SAR summary covering NO release and NF-κB reporter inhibition
Protocol: After incubated for 24 hours, cells were treated with tested compounds for different
concentrations(3.125,6.25,12.5,25 and 50μM) for 1 h, and then treated with 1 μg/mL LPS
for further 24 h. The supernatants were collected and NO level was measured using
Griess reagent (Beyotime, China). […]

NF-κB = NF-κB transcriptional activity dual-luciferase reporter assay, TNF-α stimulated; conditions: Homo sapiens, HEK-293T, HEK293T cells transfected with NF-κB reporter plasmid, stimulated by TNF-α
Protocol: 4.5. NF-κB transcriptional activity assay
HEK293T cells were seeded into 96 well plate at a density of 1×10^5 cells per well. After incubated for 24 hours, cells were transfected with NF-κB reporter plasmid at 100 ng/well using lip2000.Six hours later, the medium was replaced by fresh medium containing tested compounds with different concentrations. Then incubated for another hour, TNF-α was added for a final concentration at 10 ng/mL.12 hours later, the cell lysate was collected and the RLU was measured by microplate reader. […]

[2] = Cytotoxicity by MTT assay

Structure (SMILES) | IC50 [1] [µM] | IC50 (NF-κB) [µM] | anti-inflammatory activity (in words) [1] | IC50 [2] [µM]
COc1cccc(-c2cnc(N)c(C(=O)Nc3ccc(NC(C)=O)cc3)c2)c1 [Compound 32] | > 50 | > 2 | – | > 50
COc1ccccc1-c1cnc(N)c(C(=O)Nc2ccc(NC(C)=O)cc2)c1 [Compound 33] | > 50 | > 2 | – | > 50
COc1ccc(-c2cnc(N)c(C(=O)Nc3ccc(NC(C)=O)cc3)c2)c(OC)c1OC [Compound 34] | > 50 | > 2 | – | > 50
CC(=O)Nc1ccc(NC(=O)c2cc(-c3cccc(Cl)c3)cnc2N)cc1 [Compound 36] | > 50 | > 2 | – | > 50
CC(=O)Nc1ccc(NC(=O)c2cc(-c3ccccc3Cl)cnc2N)cc1 [Compound 37] | > 50 | > 2 | – | > 50
CC(=O)Nc1ccc(NC(=O)c2cc(-c3cccc(F)c3)cnc2N)cc1 [Compound 39] | > 50 | > 2 | – | > 50
CC(=O)Nc1ccc(NC(=O)c2cc(-c3ccc(O)cc3)cnc2N)cc1 [Compound 43] | > 50 | > 2 | – | > 50
CC(=O)Nc1ccc(NC(=O)c2cc(-c3cccc(O)c3)cnc2N)cc1 [Compound 44] | > 50 | > 2 | – | > 50
CC(=O)Nc1ccc(NC(=O)c2cc(-c3ccccc3O)cnc2N)cc1 [Compound 45] | > 50 | > 2 | – | > 50
CC(=O)Nc1ccc(NC(=O)c2cc(-c3ccc(C#N)cc3)cnc2N)cc1 [Compound 46] | > 50 | > 2 | – | > 50
CC(=O)Nc1ccc(NC(=O)c2cc(-c3ccccc3C#N)cnc2N)cc1 [Compound 48] | > 50 | > 2 | – | > 50
CC(=O)Nc1ccc(NC(=O)c2cc(-c3ccc(C=O)c(C)c3)cnc2N)cc1 [Compound 49] | > 50 | > 2 | – | > 50

More lines, main results first:

IC50 [1] [µM] | IC50 (NF-κB) [µM] | Structure (SMILES) | anti-inflammatory activity (in words) [1] | IC50 [2] [µM]
24.2 ± 4.1 | > 2 | CC(=O)Nc1ccc(NC(=O)c2cc(-c3ccc(C)cc3)cnc2N)cc1 [Compound 28] | anti-inflammatory activity decreased significantly | > 50
> 50 | > 2 | CC(=O)Nc1ccc(NC(=O)c2cc(-c3cccc(C)c3)cnc2N)cc1 [Compound 29] | anti-inflammatory activity decreased significantly | > 50
17.8 ± 2.7 | 1.04 ± 0.0175 | CC(=O)Nc1ccc(NC(=O)c2cc(-c3ccc(S(C)(=O)=O)cc3)cnc2N)cc1 [Compound 30] | – | > 50
> 50 | > 2 | COc1ccc(-c2cnc(N)c(C(=O)Nc3ccc(NC(C)=O)cc3)c2)cc1 [Compound 31] | – | > 50
4.2 ± 0.8 | 0.207 ± 0.013 | CC(=O)Nc1ccc(NC(=O)c2cc(-c3ccc(Cl)cc3)cnc2N)cc1 [Compound 35] | significantly improved the anti-inflammatory activity | > 50
13.7 ± 1.8 | 0.827 ± 0.0186 | CC(=O)Nc1ccc(NC(=O)c2cc(-c3ccc(F)cc3)cnc2N)cc1 [Compound 38] | – | > 50
26.5 ± 3 | > 2 | CC(=O)Nc1ccc(NC(=O)c2cc(-c3ccc(C(F)(F)F)cc3)cnc2N)cc1 [Compound 40] | – | > 50
8.4 ± 1.7 | 0.307 ± 0.0214 | CC(=O)Nc1ccc(NC(=O)c2cc(-c3cccc(C(F)(F)F)c3)cnc2N)cc1 [Compound 41] | – | > 50
14.6 ± 2.3 | 1.01 ± 0.0184 | CC(=O)Nc1ccc(NC(=O)c2cc(-c3ccccc3C(F)(F)F)cnc2N)cc1 [Compound 42] | – | > 50
28.9 ± 2.1 | > 2 | CC(=O)Nc1ccc(NC(=O)c2cc(-c3cccc(C#N)c3)cnc2N)cc1 [Compound 47] | – | > 50
